These results are taken from the PolyMetriX glass transition set.

For `*C(=O)Nc1ccc(Oc2ccc(Oc3ccc(NC(=O)c4ccc5c(c4)C(=O)N(c4ccc(Oc6ccc(C7(c8ccc(Oc9ccc(N%10C(=O)c%11ccc(*)cc%11C%10=O)cc9)cc8)CC8CC7C7CCCC87)cc6)cc4)C5=O)cc3)c(C(C)(C)C)c2)cc1` (repeat unit), the glass transition temperature turned out to be 275.00 °C.

For the compound `*C(=O)Nc1ccc(Oc2cccc(Oc3ccc(NC(=O)c4ccc5c(c4)C(=O)N(c4ccc(Oc6cccc(Oc7ccc(N8C(=O)c9ccc(*)cc9C8=O)cc7)c6C#N)cc4)C5=O)cc3)c2C#N)cc1` (repeat unit), the glass transition temperature amounted to 220.00 °C.

For the compound `*C(=O)Oc1ccc(OC(=O)c2ccc3c(c2)C(=O)N(C2CCC(N4C(=O)c5ccc(*)cc5C4=O)CC2)C3=O)cc1` (repeat unit), the glass transition temperature was 360.00 °C.

Take `*CCCCCCCCCCOc1ccc(OC(=O)c2ccc(OCCOCCOCCOc3ccc(C(=O)Oc4ccc(O*)cc4)cc3)cc2)cc1` (repeat unit): the glass transition temperature is 64.00 °C.

Turning to `*CCCCCCOc1ccc(OC(=O)c2ccc(C(=O)Oc3ccc(O*)cc3)cc2)cc1` (repeat unit), the glass transition temperature is 53.00 °C.

Compound `*CCCCCOc1ccc(OC(=O)c2ccc(C(=O)Oc3ccc(O*)cc3)cc2)cc1` (repeat unit) gave a glass transition temperature of 112.00 °C.

For the compound `*CCCOCCCCOCCCN1C(=O)c2ccc(C(=O)Oc3ccc(OC(=O)c4ccc5c(c4)C(=O)N(*)C5=O)c(-c4ccccc4)c3)cc2C1=O` (repeat unit), the glass transition temperature is 71.00 °C.

`*CCOCCOCCN1C(=O)c2ccc(C(=O)Oc3ccc(OC(=O)c4ccc5c(c4)C(=O)N(*)C5=O)cc3)cc2C1=O` (repeat unit) displayed a glass transition temperature of 105.00 °C.

In turn, `*OP(=O)(Oc1ccccc1)Oc1ccc(*)cc1` (repeat unit) had a glass transition temperature of 97.00 °C.

`*OS(=O)(=O)c1cccc(S(=O)(=O)Oc2ccc(C3(c4ccc(*)cc4)CCCCC3)cc2)c1` (repeat unit) had a glass transition temperature of 127.00 °C.

Compound `*O[Si](C)(C)CCCCCCOC(=O)C(C)Oc1ccc(OC(=O)c2ccc(-c3ccc(OCCCCCCCCCC[Si](*)(C)C)cc3)cc2)cc1` (repeat unit) returned a glass transition temperature of 35.00 °C.

As for `*O[Si](C)(C)CCCCCCOC(=O)C(C)Oc1ccc(OC(=O)c2ccc(-c3ccc(OCCCCCCCCCC[Si](*)(C)C)cc3)cc2)cc1[N+](=O)[O-]` (repeat unit), the glass transition temperature stood at 20.00 °C.

As to `*O[Si](Oc1ccc(C2(c3ccc(*)cc3)c3ccccc3-c3ccccc32)cc1)(c1ccccc1)c1ccccc1` (repeat unit), the glass transition temperature was 166.00 °C.

On to `*Oc1c(C)c(C)c(NC(=O)c2ccc(C(=O)Nc3ccc(*)cc3)cc2)c(C)c1C` (repeat unit), for which the glass transition temperature is 333.00 °C.

In turn, `*Oc1c(F)c(F)c(COC(c2cccc(C(OCc3c(F)c(F)c(Oc4ccc(Cc5ccc(*)cc5)cc4)c(F)c3F)(C(F)(F)F)C(F)(F)F)c2)(C(F)(F)F)C(F)(F)F)c(F)c1F` (repeat unit) gave a glass transition temperature of 94.00 °C.

For `*Oc1ccc(C(=O)c2ccc(Oc3ccc(C(=O)c4ccc(Oc5cccc(Cc6cccc(*)c6)c5)cc4)cc3)cc2)cc1` (repeat unit), the glass transition temperature was determined as 123.00 °C.

Regarding `*Oc1ccc(C2(c3ccc(OC(*)=O)c(Cl)c3)CCCCC2)cc1Cl` (repeat unit), the glass transition temperature came out at 179.00 °C.

Compound `*Oc1ccc(C2(c3ccc(OC(*)=O)cc3)CC3CCC2C3)cc1` (repeat unit) had a glass transition temperature of 235.00 °C.

Consider `*Oc1ccc(C2(c3ccc(OC(*)=O)cc3)CCCCCC2)cc1` (repeat unit), for which the glass transition temperature came out at 155.00 °C.

`*Oc1ccc(C2(c3ccc(OC(*)=O)cc3)CCc3ccccc32)cc1` (repeat unit) returned a glass transition temperature of 219.00 °C.

Compound `*Oc1ccc(C2(c3ccc(OC(=O)c4cccc(C(*)=O)c4)cc3)CCC3CCCCC3C2)cc1` (repeat unit) registered a glass transition temperature of 248.00 °C.

With `*Oc1ccc(Cc2ccc(Cc3ccc(OC(*)=O)cc3)cc2)cc1` (repeat unit), the glass transition temperature is 79.50 °C.

For the compound `*Oc1ccc(Cc2ccc(OC(*)=S)cc2)cc1` (repeat unit), the glass transition temperature turned out to be 95.00 °C.

Compound `*Oc1ccc(OC(=O)c2cc(OCCCCCCCCCCC(F)(F)C(F)(F)C(F)(F)C(F)(F)C(F)(F)C(F)(F)C(F)(F)C(F)(F)C(F)(F)C(F)(F)F)cc(C(*)=O)c2)cc1` (repeat unit) displayed a glass transition temperature of 137.00 °C.

`*Oc1ccc(OC(=O)c2cc(OCCCCCCCCCCOCC3CCCN3c3ccc([N+](=O)[O-])cc3)c(C(*)=O)cc2OCCCCCCCCCCOCC2CCCN2c2ccc([N+](=O)[O-])cc2)cc1` (repeat unit) gave a glass transition temperature of 30.00 °C.

As for `*Oc1ccc(OC(=O)c2cc(OCCCCCCOCC3CCCN3c3ccc([N+](=O)[O-])cc3)c(C(*)=O)cc2OCCCCCCOCC2CCCN2c2ccc([N+](=O)[O-])cc2)cc1` (repeat unit), the glass transition temperature was found to be 56.00 °C.

For `*Oc1ccc(OC(=O)c2cc(OCCCCCOCC3CCCN3c3ccc([N+](=O)[O-])cc3)c(C(*)=O)cc2OCCCCCOCC2CCCN2c2ccc([N+](=O)[O-])cc2)cc1` (repeat unit), the glass transition temperature is 63.00 °C.

Compound `*Oc1ccc(OC(=O)c2ccc(-c3ccc(C(*)=O)cc3)cc2-c2ccccc2)c2ccccc12` (repeat unit) registered a glass transition temperature of 165.00 °C.

Regarding `*Oc1ccc(OC(=O)c2ccc(-c3ccc(C(*)=O)cc3)cc2-c2ccccc2)cc1-c1ccccc1` (repeat unit), the glass transition temperature worked out at 148.00 °C.

In the case of `*Oc1ccc(OC(=O)c2ccc(C(*)=O)cc2)cc1C1CCCCCCC1` (repeat unit), the glass transition temperature came out at 213.00 °C.

In turn, `*Oc1ccc(OC(=O)c2ccc(C(*)=O)cc2Oc2ccc(-c3ccccc3)cc2)cc1` (repeat unit) registered a glass transition temperature of 117.00 °C.

`*Oc1ccc(OC(=O)c2ccc(C(*)=O)cc2Oc2ccc(Br)cc2)cc1` (repeat unit) registered a glass transition temperature of 108.00 °C.

For the compound `*Oc1ccc(OC(=O)c2ccc(C(*)=O)cc2Oc2ccc(Cl)cc2)cc1` (repeat unit), the glass transition temperature was 107.00 °C.

Regarding `*Oc1ccc(OC(=O)c2ccc(C(*)=O)cc2Sc2ccc(Cl)cc2)cc1` (repeat unit), the glass transition temperature came out at 140.00 °C.

In the case of `*Oc1ccc(OC(=O)c2ccc(C(*)=O)cc2Sc2ccc3ccccc3c2)cc1` (repeat unit), the glass transition temperature amounted to 148.00 °C.

In turn, `*Oc1ccc(OC(=O)c2cccc(Oc3cccc(C(*)=O)c3)c2)cc1` (repeat unit) registered a glass transition temperature of 119.00 °C.

`*Oc1ccc(Oc2ccc(NC(=O)c3cccc(C(=O)Nc4ccc(*)cc4)c3)cc2)cc1C(C)(C)C` (repeat unit) registered a glass transition temperature of 208.00 °C.

The compound `*Oc1ccc(Oc2ccc(S(=O)(=O)c3ccc(Oc4ccc(C(=O)c5ccc(*)cc5)cc4)cc3)cc2)cc1` (repeat unit) came in with a glass transition temperature of 186.00 °C.

Take `*Oc1ccc2cc(Oc3ccc(S(=O)(=O)c4ccc(Oc5ccc(C(=O)c6ccc(*)cc6)cc5)cc4)cc3)ccc2c1` (repeat unit): the glass transition temperature came out at 199.00 °C.

`*Oc1cccc(C(=O)c2ccc(Oc3ccc(C(=O)c4ccc(*)cc4)cc3)cc2)c1` (repeat unit) had a glass transition temperature of 146.00 °C.

Regarding `*c1ccc(Cc2ccc(N3C(=O)c4ccc(Oc5ccc(C6(c7ccc(Oc8ccc9c(c8)C(=O)N(*)C9=O)cc7)CCC(c7ccccc7)CC6)cc5)cc4C3=O)cc2)cc1` (repeat unit), the glass transition temperature was found to be 232.00 °C.

`*c1ccc(Cc2ccc(N3C(=O)c4ccc(Oc5ccc(C6(c7ccc(Oc8ccc9c(c8)C(=O)N(*)C9=O)cc7)CCCCCCCCCCC6)cc5)cc4C3=O)cc2)cc1` (repeat unit) displayed a glass transition temperature of 240.00 °C.

`*c1ccc(OC(=O)Oc2ccc(C3(*)OC(=O)c4ccccc43)cc2)cc1` (repeat unit) registered a glass transition temperature of 252.20 °C.

For the compound `*c1ccc(Oc2cc(C(C)(C)C)c(Oc3ccc(N4C(=O)c5ccc(-c6ccc7c(c6)C(=O)N(*)C7=O)cc5C4=O)cc3)cc2C(C)(C)C)cc1` (repeat unit), the glass transition temperature was 293.00 °C.

Turning to `*c1ccc(Oc2cc(C(C)(C)C)c(Oc3ccc(N4C(=O)c5ccc(Oc6ccc7c(c6)C(=O)N(*)C7=O)cc5C4=O)cc3)cc2C(C)(C)C)cc1` (repeat unit), the glass transition temperature was 242.00 °C.

On to `*c1ccc(Oc2cc(C(C)(C)C)c(Oc3ccc(N4C(=O)c5ccc(S(=O)(=O)c6ccc7c(c6)C(=O)N(*)C7=O)cc5C4=O)cc3)cc2C(C)(C)C)cc1` (repeat unit), for which the glass transition temperature stood at 263.00 °C.

Turning to `*c1ccc(Oc2cc(C(C)(C)C)ccc2Oc2ccc(N3C(=O)c4ccc(-c5ccc6c(c5)C(=O)N(*)C6=O)cc4C3=O)cc2)cc1` (repeat unit), the glass transition temperature came to 257.00 °C.

The compound `*c1ccc(Oc2ccc(C3(c4ccc(Oc5ccc(N6C(=O)c7ccc(Oc8ccc(C9(c%10ccc(Oc%11ccc%12c(c%11)C(=O)N(*)C%12=O)cc%10)CCC(c%10ccccc%10)CC9)cc8)cc7C6=O)cc5)cc4)CC4CC3C3CCCC43)cc2)cc1` (repeat unit) displayed a glass transition temperature of 255.00 °C.

Compound `*c1ccc(Oc2ccc(N3C(=O)c4ccc(Oc5ccc(C(=O)c6ccc(Oc7ccc8c(c7)C(=O)N(*)C8=O)cc6)cc5)cc4C3=O)cc2)cc1` (repeat unit) displayed a glass transition temperature of 210.00 °C.

As to `*c1ccc(Oc2ccc(Oc3ccc(N4C(=O)c5ccc(Oc6ccc(C(c7ccccc7)(c7ccccc7)c7ccc(Oc8ccc9c(c8)C(=O)N(*)C9=O)cc7)cc6)cc5C4=O)cc3)c(C(C)(C)C)c2)cc1` (repeat unit), the glass transition temperature worked out at 229.00 °C.

On to `*c1ccc(Oc2ccc(Oc3ccc(N4C(=O)c5ccc(Oc6ccc(C7(c8ccc(Oc9ccc%10c(c9)C(=O)N(*)C%10=O)cc8)CCC(C(C)(C)C)CC7)cc6)cc5C4=O)cc3)c(C(C)(C)C)c2)cc1` (repeat unit), for which the glass transition temperature came out at 233.00 °C.

With `*c1ccc(Oc2cccc(Oc3ccc(N4C(=O)c5ccc(-c6ccc7c(c6)C(=O)N(*)C7=O)cc5C4=O)cc3)c2C#N)cc1` (repeat unit), the glass transition temperature was 271.00 °C.

In turn, `*c1ccc2c(c1)C(=O)N(c1ccc(Oc3ccc(N4C(=O)c5ccc(C(*)(C(F)(F)F)C(F)(F)F)cc5C4=O)cc3)c(OCCN(CC)c3ccc(/N=N/c4ccc([N+](=O)[O-])cc4)cc3)c1)C2=O` (repeat unit) had a glass transition temperature of 202.00 °C.
